Data reported in patent publication US20250235520A1, “METHODS FOR REVERSING A SUPPRESSED IMMUNE STATE TO INCREASE SURVIVAL IN A SUBJECT” (priority 2022, published 2025).

Legend:
[1] = tested on: breast cancer patients with tumors expressing HER2 (HER2 3+); assay: Phase IIb trial (NCT00524277): disease free survival / recurrence; assay type: in vivo, human; conditions: HER2 3+ patients who completed the primary immunization series after trastuzumab; 5 years of follow-up
[2] = tested on: breast cancer patients with tumors expressing any degree of HER2; assay: Phase IIb trial: injection site reactions (ISRs), orthogonal mean of largest perpendicular diameters; assay type: in vivo, human
Procedure: Background: Delayed type hypersensitivity (DTH) skin tests in the randomized, active-controlled, single-blinded, multicenter Phase IIb trial investigating GLSI-100 (GP2+GM-CSF) administered in the adjuvant setting to node-positive and high-risk node-negative breast cancer patients with tumors expressing any degree of HER2 (immuno-histochemistry [IHC] 1-3+) (NCT00524277) were analyzed. The trial enrolled HLA-A*02 patients randomized to receive GLSI-100 versus GM-CSF alone. The trial's primary objective was to determine if treatment with GLSI-100, a HER2-derived peptide, reduces recurrence rates.
Methods: Patients were randomized and received GLSI-100 (500 micrograms (mcg) GP2 and 125 mcg GM-CSF) or control (GM-CSF) via 6 intradermal injections every 3-4 weeks for the first 6 months and 4 booster injections every 6 months. The magnitude of injection site reactions, which occurred in almost all patients, were assessed for the 10 doses administered by measuring the largest perpendicular diameters and the resulting orthogonal mean.

Substance | Kaplan-Meier estimated 5-year disease free survival (DFS) rate [1] [%] | median orthogonal mean induration ([2]; after a single dose) [mm] | patients with injection site reactions ([2]; all treated patients) [%] | difference in reactions, HER2 3+ control patients (Herceptin treated) smaller than HER2 1-2+ control patients ([2]; average over all 10 doses) [mm] | increase of injection site reactions by adding GP2 treatment ([2]; trastuzumab treated HER2 3+ patients vs GM-CSF control, average over all 10 doses) [mm]
GM-CSF: granulocyte macrophage colony-stimulating factor, adjuvant; control arm (called placebo) of the active-controlled trial | 89.4 | 7.8 | ~100 | 43.1 | 
Ile Ile Ser Ala Val Val Gly Ile Leu (IISAVVGIL) [GP2, 9 amino acid transmembrane peptide of the HER2/neu protein] |  |  |  |  | 39.2
